Patent US20030008335A1, “Biosensor for drug candidates” (priority 2001, published 2003)
Like-named read-outs stand apart in the source and are kept apart here.

How the values were obtained:
[1] = tested on: bovine aortic endothelial cells (ECs); assay: EC QCM biosensor: Δf and ΔR shifts of attached endothelial cells after drug addition; type: cell-based; conditions: for EC50: Bos taurus, Endothelial cell
Source text: The details of how these measurements were made have been presented previously. Basically, an AT cut quartz crystal of resonant frequency 8.85 MHz with gold electrode (5 mm diameter)was used in a cylindrical Teflon cell (Seiko EG&G). The crystal was sandwiched between two silicone O-rings to allow only one side of the electrode to be exposed to the media and serum containing solution (FIG. 1B). The QCM device was placed within a large petri dish, filled with distilled water, at a level well […] the water surface. This water reservoir allowed humidity to be maintained, preventing evaporation from the QCM cell. The QCM was covered with a petri dish cover plate following placement inside a 37° C. temperature regulated cell incubator. A Model QCA 917 Quartz Crystal Analyzer System (Seiko EG&G), comprised of a Main Unit and Oscillator, was used for the simultaneous measurement of the resonant frequency (f) and resonance admittance (A). Before assembly in the well holder, the gold QCM surface was treated chemically to render it hydrophilic. A drop of 1:3 H2O2 (30%): H2SO4 at 80° C. was placed upon and covered the gold surface for 5 minutes, followed by rinsing with distilled water and drying under N2. This procedure was repeated three times. After sterilization and washing with water and PBS, 52 μl of media and 10% Calf Serum (CS) was added onto the QCM electrode and the entire holder was put into a humidified CO2 incubator controlled at 10% CO2. The f and admittance (A) values were automatically monitored at 1 minute intervals using a PC and WinWedge 32, version 3.0 Software (TAL Technologies®) and the stable values at 2 hour were taken as reference values before the addition of cells. After 2 hours, 250 μl media +10% CS containing a specific number of cells was added evenly to the medium surface. Then f and A values were automatically monitored during the process of EC sedimentation to the crystal surface, and during their impact and spreading over a 20 hr period to achieve steady state attachment. In the data reduction phase, values of A, in μS were converted into motional resistance, R, in units of Ω, using the relationship R=10^6/A. Nocodazole achieved its final concentration by being added in a pre-warned 50 μl volume of media and serum, following removal of 50 μl from the top of the EC QCM biosensor well holder. Following the conclusion of each experiment, trypsinable ECs adhering to the gold QCM surface were determined as described below. Bovine aortic endothelial cells (BAEs) were obtained from Clonetics, Inc., and were maintained as stock cultures in DMEM-10% CS, as previously described. BAEs were not used beyond passage 22. For experimental treatments, ECs were trypsinized, washed with PBS, and precise counts of the number of cells were made using an electronic cell counter made by Coulter, Inc., following resuspension in full media (250 μl). At the end of a QCM experiment, cells firmly attached were determined via trypsinization assay and an electronic counter. This protocol involved the following steps. Media was collected from the QCM (M). The QCM was gently washed with 100 μl PBS (W). After 125 μl trypsin (0.05% w/v trypsin, 0.53 mM EDTA, in Hank's Buffered salt solution) was added and incubated for 6 min. at 37° C., this fraction was collected (T1). Following a second trypsinization wash, identical to the first, this fraction was collected (T2). Aliquots from all of the four steps (M, W, T1, T2) were electronically counted using Coulter counting. After trypsinization, the QCM electrode was washed successively with PBS, water, ethanol, then detached from the well holder. It was then cleaned sequentially with a number of reagents to remove all residual ECM and cell debris, as we have previously described. Cleaned in this way, the QCM was used repeatedly with good reproducibility of its initial f and R values, due to complete protein removal from the QCM surface.

[2] = tested on: bovine aortic endothelial cells (ECs); assay: Fluorescence light microscopy of actin-stained ECs on the gold QCM crystal surface; type: cell-based; conditions: 15 μM (FIG. 8B), four hours treatment
Description: For actin localization in the multichamber wells or in the QCM device, media was aspirated and replaced with 3.5% formaldehyde. The cells were fixed for 15 mins at room temperature, washed with PBS and then incubated with rhodamine-labeled phalloidin (0.165 μM in PBS) for 30 mins at room temperature. The cells were then washed with PBS and coverslipped with Cytoseal mounting medium (VWR Scientific). The cells were examined using an Olympus BH2 CTD microscope, and the images were digitized using a CCD camera and imported into Photoshop 5.0 of Adobe® and using a Gateways® P11-390 computer. Actin localization within cells grown and or treated with nocodazole in the QCM. We wished to examine the ECs directly attached to the QCM surface with and without nocodazole treatment. Since the […] needed to be chemically fixed on the surface, we needed to sacrifice crystals for this purpose. Two different crystals were used. The first crystal was used to visualize ECs growing on the gold QCM surface at the steady state condition. At the conclusion of the QCM measurement, cells on the crystals were stained to localize actin microfilaments. In the first experiment, ECs were added to the crystal and were allowed to attach for 24 hrs to achieve their normal characteristic Δf and ΔR shifts. […]

[3] = tested on: bovine aortic endothelial cells (ECs); assay: Fluorescence light microscopy of actin-stained ECs in multichamber LabTek slides (QCM simulation); type: cell-based; conditions: for EC shape and morphology (actin stain): 4 hr treatment
Description: To acquire detailed information about the change in cell shape and attachment while ECs were exposed to varying nocodazole concentrations, we performed a simulation experiment. 76,400 ECs were plated into multichamber LabTek slides and were allowed to attach for 24 hrs in normal growth media. This number of cells simulates the cell surface density in the QCM device. 50 μL of media was then removed and replaced with 50 μL of media with or without concentrated nocodazole. In duplicate, cells either received no nocodazole (control) or final concentrations of 0.33, 1, 2, 6 or 15 μM nocodazole. After four hours, the cells were fixed and stained to reveal the actin microfilament arrangement within the cells, as described below. These studies were performed to detect the shape and attachment changes in ECs that would roughly correspond to a time when the QCM detected maximal shifts in f and R values. […] For actin localization in the multichamber wells or in the QCM device, media was aspirated and replaced with 3.5% formaldehyde. The cells were fixed for 15 mins at room temperature, washed with PBS and then incubated with rhodamine-labeled phalloidin (0.165 μM in PBS) for 30 mins at room temperature. The cells were then washed with PBS and coverslipped with Cytoseal mounting medium (VWR Scientific). The cells were examined using an Olympus BH2 CTD microscope, and the images were digitized using a CCD camera and imported into Photoshop 5.0 of Adobe® and using a Gateways® P11-390 computer.

[4] = tested on: bovine aortic endothelial cells (ECs); conditions: 3 ng/ml, over 3 days following administration; cited from earlier work
[5] = 15 μM, ECs beginning to detach from crystal surface
[6] = fluorescence light microscope observations

| Compound | initial maximum increase in ΔR after drug addition ([1]; 2.0 μM final concentration, 20,000 ECs added, steady state biosensor) | Δf drop after drug addition ([1]; 2.0 μM final concentration, over the next 4 hours, 20,000 ECs added, steady state biosensor) [Hz] | Δ(ΔR) value at 15 μM relative to that measured at 6 μM [1, 5] [%] | Δ(Δf) value at 15 μM relative to that measured at 6 μM [1, 5] [%] | EC50 ([1]; as printed in the conclusion, read-out: PC50 (midpoint value of dose effect curve)) [nM] | EC50 ([1]; dose curves of Δ(Δf) and Δ(ΔR) vs log concentration, 0.11-6 μM, read-out: PC50 (effective change in cellular attachment in 50% of the ECs, transition midpoint of dose curve)) [nM] | EC shape and morphology on QCM crystal (actin stain) [2] | EC shape and morphology (actin stain) ([3]; 0.33 μM) | EC shape and morphology (actin stain) ([3]; 1 and 2 μM) | EC shape and morphology (actin stain) ([3]; 6 and 15 μM) | concentration at which changes in EC intercellular contacts and progressive cell rounding begin [3, 6] | concentration by which changes in EC intercellular contacts and cell rounding saturate [3, 6] [µM] | growth stimulation of ECs on the QCM biosensor [4] |
| --- | --- | --- | --- | --- | --- | --- | --- | --- | --- | --- | --- | --- | --- |
| COC(=O)Nc1nc2ccc(C(=O)c3cccs3)cc2[nH]1 [nocodazole] | 14 Ω | 360 | 50 | 50 | 900 | ~900 | lost cell-cell contact | smaller than control cells | the monolayer became disrupted | significantly reduced cellular area | around 330 nM | ≤ 6 | – |
| Fibroblast Growth Factor | – | – | – | – | – | – | – | – | – | – | – | – | stimulated the ECs to divide |
